Measurements from patent US10323018B2 (Millennium Pharmaceuticals, Inc., priority 2015, dated 2019).

Tests used:
hNAMPT protein = hNAMPT protein (Homo sapiens (Human), UniProt P43490); assay: NAMPT enzyme assay (TR-FRET/HTRF with BodiPY ligand); assay type: binding; details: for inhibition at 1 µM: NAMPT inhibition at compound concentration 1 μM, read-out: Percent Inhibition; for IC50: NAMPT inhibition, IC50 range class
Method in brief: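 His-tagged hNAMPT with anti-6His-Tb, incubated with compound and BodiPY ligand for 1 h at rt in the dark, in Tris-HCl pH 7.5 buffer with DTT, NaCl, MgCl2 and Tween 20. TR-FRET measured with 320 nm excitation as the 520/486 nm emission ratio. IC50 fitted relative to DMSO controls.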

PC3 cells = assay: PC3 growth inhibition (Cell-titer glo, 72 hours); assay type: cell-based; details: Homo sapiens, PC-3, 72 h, read-out: Percent Viability, PC3 cells, compound concentration 1.667 μM, 72 hours
Method in brief: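 PC3 cells grown in RPMI1640 plated at 8×10^4 cells/ml, incubated overnight, then exposed to compound diluted in AIM serum-free medium for 72 h at 37 °C, 5% CO2. Luminescence by CellTiter-Glo relative to DMSO controls; % viability at single concentration, GI50 or LD50 from concentration-response curves.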

Chain of hNAMPT protein (P43490 whole entry): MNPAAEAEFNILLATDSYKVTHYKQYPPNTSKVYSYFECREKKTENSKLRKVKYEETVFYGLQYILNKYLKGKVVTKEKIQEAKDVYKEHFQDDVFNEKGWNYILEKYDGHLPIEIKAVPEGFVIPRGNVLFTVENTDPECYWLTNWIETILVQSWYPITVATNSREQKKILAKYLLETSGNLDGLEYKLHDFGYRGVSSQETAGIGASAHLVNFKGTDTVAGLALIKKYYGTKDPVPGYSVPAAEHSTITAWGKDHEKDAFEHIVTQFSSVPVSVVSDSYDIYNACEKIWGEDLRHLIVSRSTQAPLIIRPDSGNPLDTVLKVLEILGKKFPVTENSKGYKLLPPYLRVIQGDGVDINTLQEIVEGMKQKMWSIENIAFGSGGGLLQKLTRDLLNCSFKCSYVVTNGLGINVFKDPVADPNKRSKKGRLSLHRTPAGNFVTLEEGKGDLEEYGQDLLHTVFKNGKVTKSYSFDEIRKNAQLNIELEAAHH

Compound	inhibition at 1 µM (hNAMPT protein) [%]	IC50 (hNAMPT protein) [µM]	viability at 1.667 µM (PC3 cells) [%]
CCOc1cc(-c2ccncc2)nc2cc(C(=O)NCCCc3nnc[nH]3)ccc12 [Compound I-214, 4-ethoxy-2-(pyridin-4-yl)-N-[3-(4H-1,2,4-triazol-3-yl)propyl]quinoline-7-carboxamide]	97	0.01 to 0.05	1
O=C(NCCCc1ncc[nH]1)c1ccc2c(C3CC3)nc(-c3ccc(Cl)cc3)nc2c1 [Compound I-31, 2-(4-chlorophenyl)-4-cyclopropyl-N-[3-(1H-imidazol-2-yl)propyl]quinazoline-7-carboxamide]	97	0.01 to 0.05	1
CCc1nc(-c2ccc(Cl)s2)nc2cc(C(=O)NCCCc3ncc[nH]3)ccc12 [Compound I-22, 2-(5-chloro-2-thienyl)-4-ethyl-N-[3-(1H-imidazol-2-yl)propyl]quinazoline-7-carboxamide]	> 99	0.01 to 0.05	1
CCOc1cc(-c2ccn(C)c(=O)c2)nc2cc(C(=O)NCCCc3cc[nH]n3)ccc12 [Compound I-119, 4-ethoxy-2-(1-methyl-2-oxo-1,2-dihydropyridin-4-yl)-N-[3-(1H-pyrazol-3-yl)propyl]quinoline-7-carboxamide]	100	0.01 to 0.05	2
CCOc1cc(-c2ccnc(OC)c2)nc2cc(C(=O)NCCc3nnc[nH]3)ccc12 [Compound I-191, 4-ethoxy-2-(2-methoxypyridin-4-yl)-N-[2-(4H-1,2,4-triazol-3-yl)ethyl]quinoline-7-carboxamide]	79	> 0.1	10
CCOc1nc(-c2ccc(F)cc2)nc2cc(C(=O)NCc3ccc4nccn4c3)ccc12 [Compound I-34, 4-ethoxy-2-(4-fluorophenyl)-N-(imidazo[1,2-a]pyridin-6-ylmethyl)quinazoline-7-carboxamide]	97	< 0.01	1
CCOc1cc(-c2ccc(C)nc2)nc2cc(C(=O)NCCCc3nnc[nH]3)ccc12 [Compound I-173, 4-ethoxy-2-(6-methylpyridin-3-yl)-N-[3-(4H-1,2,4-triazol-3-yl)propyl]quinoline-7-carboxamide]	98	0.01 to 0.05	2
CCOc1cc(-c2ccc(F)cc2)nc2cc(C(=O)NCc3nc4cnccc4[nH]3)ccc12 [Compound I-14, 4-ethoxy-2-(4-fluorophenyl)-N-(1H-imidazo[4,5-c]pyridin-2-ylmethyl)quinoline-7-carboxamide]	> 99	< 0.01	1
CCOc1cc(-c2ccc(F)cc2OC)nc2cc(C(=O)NCc3ccn4ncnc4c3)ccc12 [Compound I-85, 4-ethoxy-2-(4-fluoro-2-methoxyphenyl)-N-([1,2,4]triazolo[1,5-a]pyridin-7-ylmethyl)quinoline-7-carboxamide]	100	< 0.01	2
O=C(NCCCc1ncc[nH]1)c1ccc2c(OCCO)cc(-c3ccc(F)cc3)nc2c1 [Compound I-229, 2-(4-fluorophenyl)-4-(2-hydroxyethoxy)-N-[3-(1H-imidazol-2-yl)propyl]quinoline-7-carboxamide]	99	< 0.01	2
CCOc1nc(-c2ccc(F)cc2)nc2cc(C(=O)NCCCc3ncc[nH]3)ccc12 [Compound I-32, 4-ethoxy-2-(4-fluorophenyl)-N-[3-(1H-imidazol-2-yl)propyl]quinazoline-7-carboxamide]	> 99	< 0.01	2
CCOc1cc(-c2ccc(F)cc2)nc2cc(C(=O)NCCc3cn[nH]c3)ccc12 [Compound I-48, 4-ethoxy-2-(4-fluorophenyl)-N-[2-(1H-pyrazol-4-yl)ethyl]quinoline-7-carboxamide]	97	0.01 to 0.05	4
COCCOc1cc(-c2ccc(F)cc2)nc2cc(C(=O)NCCCc3cc[nH]n3)ccc12 [Compound I-120, 2-(4-fluorophenyl)-4-(2-methoxyethoxy)-N-[3-(1H-pyrazol-3-yl)propyl]quinoline-7-carboxamide]	94	0.01 to 0.05	2
CC(C)Cc1nc(-c2ccc(Cl)cc2)nc2cc(C(=O)NCCCc3ncc[nH]3)ccc12 [Compound I-21, 2-(4-chlorophenyl)-N-[3-(1H-imidazol-2-yl)propyl]-4-isobutylquinazoline-7-carboxamide]	99	0.01 to 0.05	0
O=C(NCCCc1nnc[nH]1)c1ccc2c(-n3ccnc3)cc(-c3ccc(F)cc3)nc2c1 [Compound I-148, 2-(4-fluorophenyl)-4-(1H-imidazol-1-yl)-N-[3-(4H-1,2,4-triazol-3-yl)propyl]quinoline-7-carboxamide]	99	< 0.01	1
CCOc1cc(-c2ccc(F)cc2)nc2cc(C(=O)NCc3ccn4ncnc4c3)ccc12 [Compound I-130, 4-ethoxy-2-(4-fluorophenyl)-N-([1,2,4]triazolo[1,5-a]pyridin-7-ylmethyl)quinoline-7-carboxamide]	100	< 0.01	2
CCOc1cc(-c2ccc(OC)nc2)nc2cc(C(=O)NCCCc3cnn[nH]3)ccc12 [Compound I-102, 4-ethoxy-2-(6-methoxypyridin-3-yl)-N-[3-(1H-1,2,3-triazol-5-yl)propyl]quinoline-7-carboxamide]	99	< 0.01	2
CCOc1cc(-c2ccc(C)nc2OC)nc2cc(C(=O)NCCCc3[nH]nnc3C)ccc12 [Compound I-94, 4-ethoxy-2-(2-methoxy-6-methylpyridin-3-yl)-N-[3-(4-methyl-1H-1,2,3-triazol-5-yl)propyl]quinoline-7-carboxamide]	97	0.01 to 0.05	1
CCOc1cc(-c2ccnc(OC)c2)nc2cc(C(=O)NCCCc3ccn[nH]3)ccc12 [Compound I-155, 4-ethoxy-2-(2-methoxypyridin-4-yl)-N-[3-(1H-pyrazol-5-yl)propyl]quinoline-7-carboxamide]	98	0.01 to 0.05	2
CCNc1cc(OCC)c2ccc(C(=O)NCCCc3ncc[nH]3)cc2n1 [Compound I-42, 4-ethoxy-2-(ethylamino)-N-[3-(1H-imidazol-2-yl)propyl]quinoline-7-carboxamide]	83	> 0.1	11
CCOc1cc(-c2cc(OC)ncc2F)nc2cc(C(=O)NCCCc3[nH]nnc3C)ccc12 [Compound I-68, 4-ethoxy-2-(5-fluoro-2-methoxypyridin-4-yl)-N-[3-(4-methyl-1H-1,2,3-triazol-5-yl)propyl]quinoline-7-carboxamide]	92	0.01 to 0.05	1
CCOc1cc(-c2ccc(C)nc2OC)nc2cc(C(=O)NCc3nc4cnccc4[nH]3)ccc12 [Compound I-174, 4-ethoxy-N-(1H-imidazo[4,5-c]pyridin-2-ylmethyl)-2-(2-methoxy-6-methylpyridin-3-yl)quinoline-7-carboxamide]	> 99	< 0.01	1
CCOc1cc(-c2ccnc(OC)c2)nc2cc(C(=O)NCCc3cnn[nH]3)ccc12 [Compound I-195, 4-ethoxy-2-(2-methoxypyridin-4-yl)-N-[2-(1H-1,2,3-triazol-5-yl)ethyl]quinoline-7-carboxamide]	89	0.05 to 0.1	19
CCOc1cc(-c2ccc(F)cc2)nc2cc(C(=O)NCCc3nnc(N)[nH]3)ccc12 [Compound I-142, N-[2-(5-amino-4H-1,2,4-triazol-3-yl)ethyl]-4-ethoxy-2-(4-fluorophenyl)quinoline-7-carboxamide]	89	> 0.1	14
CCOc1cc(-c2ccc(F)cc2OC)nc2cc(C(=O)NCCc3c[nH]nc3C)ccc12 [Compound I-129, 4-ethoxy-2-(4-fluoro-2-methoxyphenyl)-N-[2-(3-methyl-1H-pyrazol-4-yl)ethyl]quinoline-7-carboxamide]	96	0.01 to 0.05	2
CCOc1cc(-c2ccc(F)c(F)c2)nc2cc(C(=O)NCCCc3ncc[nH]3)ccc12 [Compound I-52, 2-(3,4-difluorophenyl)-4-ethoxy-N-[3-(1H-imidazol-2-yl)propyl]quinoline-7-carboxamide]	99	< 0.01	4
CCOc1cc(-c2ccc(F)cc2)nc2cc(C(=O)NCc3cc4[nH]ncc4s3)ccc12 [Compound I-80, 4-ethoxy-2-(4-fluorophenyl)-N-(1H-thieno[3,2-c]pyrazol-5-ylmethyl)quinoline-7-carboxamide]	98	< 0.01	2
CCOc1cc(-c2cc(OC)ncc2Cl)nc2cc(C(=O)NCCCc3nnc[nH]3)ccc12 [Compound I-164, 2-(5-chloro-2-methoxypyridin-4-yl)-4-ethoxy-N-[3-(4H-1,2,4-triazol-3-yl)propyl]quinoline-7-carboxamide]	97	< 0.01	2
